The values that follow are results of earlier work, collected in patent US20040034042A1, “Preservative composition” (priority 2002, published 2004).

SMILES strings stand for the structures.

Data set [1] relates to Rhizopus, Penicillium and like fungi. Conditions: literature statement; effects called insufficient.

In the case of `Cn1c(=O)c2c(ncn2C)n(C)c1=O` [caffeine], in the data set on A. parasiticus, the “production of aflatoxin by A. parasiticus” value was “inhibits the production of aflatoxin”. Moreover, in data set [1], the “antibacterial activity to Rhizopus, Penicillium and like fungi” value is “exhibits antibacterial activity”.
